US9656988B2 (Pharmacyclics LLC, priority 2013, dated 2017)
Where two headings read alike, the source gives them in different places.

Target: BTK (Homo sapiens (Human), UniProt Q06187)
Experiment: Btk in vitro inhibitory activity (one of Method A TR-FRET, Method B electrophoretic mobility shift, Method C radiometric filter binding)
Assay type: biochemical
[1] = determined using one of the methods of Example 355a, 355b and 355c, read-out: BTK IC50

Sequence of BTK (Q06187 whole entry): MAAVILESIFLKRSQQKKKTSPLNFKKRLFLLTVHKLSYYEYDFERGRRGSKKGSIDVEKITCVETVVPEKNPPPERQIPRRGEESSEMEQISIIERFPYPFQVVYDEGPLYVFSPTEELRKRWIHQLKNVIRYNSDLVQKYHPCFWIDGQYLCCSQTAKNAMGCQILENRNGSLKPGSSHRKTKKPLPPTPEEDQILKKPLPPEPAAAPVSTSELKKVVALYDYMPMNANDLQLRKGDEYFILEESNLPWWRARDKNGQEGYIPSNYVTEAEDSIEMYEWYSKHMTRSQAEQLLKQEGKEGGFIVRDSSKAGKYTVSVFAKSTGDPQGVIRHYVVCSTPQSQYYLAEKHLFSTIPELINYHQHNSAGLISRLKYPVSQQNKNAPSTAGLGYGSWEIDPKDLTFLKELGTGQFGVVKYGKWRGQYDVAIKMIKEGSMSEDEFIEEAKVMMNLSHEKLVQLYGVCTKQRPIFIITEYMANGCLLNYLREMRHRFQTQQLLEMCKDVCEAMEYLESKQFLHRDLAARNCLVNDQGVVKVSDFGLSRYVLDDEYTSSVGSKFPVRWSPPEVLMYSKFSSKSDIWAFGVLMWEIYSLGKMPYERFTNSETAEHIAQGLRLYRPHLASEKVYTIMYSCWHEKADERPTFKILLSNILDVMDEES

| SMILES | IC50 (Btk (IC50)) | IC50 [1] | IC50 (read-out: Btk (IC50)) | IC50 |
| --- | --- | --- | --- | --- |
| CN(C)C(=O)N[C@@H]1CCCN(c2cnc(C(N)=O)c(Nc3ccc(C4CCNCC4)cc3Cl)n2)C1 [Example 213, (R)-3-(2-chloro-4-(piperidin-4-yl)phenylamino)-5-(3-(3,3-dimethylureido)piperidin-1-yl)pyrazine-2-carboxamide] | 10 to 100 nM | 10 to 100 nM |  |  |
| CN(C)C(=O)N[C@@H]1CCCN(c2cnc(C(N)=O)c(Nc3cnn(C4CC4)c3)n2)C1 [Example 216, (R)-3-(1-cyclopropyl-1H-pyrazol-4-ylamino)-5-(3-(3,3-dimethylureido)piperidin-1-yl)pyrazine-2-carboxamide] |  | 10 to 100 nM |  |  |
| CN(C)C(=O)N[C@@H]1CCCN(c2cnc(C(N)=O)c(Nc3cnn(C4CCCC4)c3)n2)C1 [Example 217, (R)-3-(1-cyclopentyl-1H-pyrazol-4-ylamino)-5-(3-(3,3-dimethylureido)piperidin-1-yl)pyrazine-2-carboxamide] |  | 10 to 100 nM |  |  |
| CN(C)C(=O)N[C@@H]1CCCN(c2cnc(C(N)=O)c(Nc3cnn(C4CCN(C(=O)C5CC5)CC4)c3)n2)C1 [Example 219, (R)-3-(1-(1-(cyclopropanecarbonyl)piperidin-4-yl)-1H-pyrazol-4-ylamino)-5-(3-(3,3-dimethylureido)piperidin-1-yl)pyrazine-2-carboxamide] | 10 to 100 nM | 10 to 100 nM |  |  |
| CN(C)C(=O)N[C@@H]1CCCN(c2cnc(C(N)=O)c(Nc3ccc(C4(C)CCN(C5CCCC5)CC4)cc3)n2)C1 [Example 222, (R)-3-(4-(1-cyclopentyl-4-methylpiperidin-4-yl)phenylamino)-5-(3-(3,3-dimethylureido)piperidin-1-yl)pyrazine-2-carboxamide] |  | < 10 nM | < 10 nM |  |
| CN(C)C(=O)N1CCC(c2ccc(Nc3nc(N4CCC[C@@H](N(C)C(=O)N(C)C)C4)cnc3C(N)=O)cc2)CC1 [Example 226, (R)-3-(4-(1-(dimethylcarbamoyl)piperidin-4-yl)phenylamino)-5-(3-(1,3,3-trimethylureido)piperidin-1-yl)pyrazine-2-carboxamide] | 10 to 100 nM | 10 to 100 nM |  |  |
| CCC(=O)N1CCC(c2ccc(Nc3nc(N4CCC[C@@H](N(C)C(=O)N(C)C)C4)cnc3C(N)=O)cc2)CC1 [Example 227, (R)-3-(4-(1-propionylpiperidin-4-yl)phenylamino)-5-(3-(1,3,3-trimethylureido)piperidin-1-yl)pyrazine-2-carboxamide] | 10 to 100 nM | 10 to 100 nM |  |  |
| CN(C)C(=O)N(C)[C@@H]1CCCN(c2cnc(C(N)=O)c(Nc3ccc(C4CCN(S(C)(=O)=O)CC4)cc3)n2)C1 [Example 228, (R)-3-(4-(1-(methylsulfonyl)piperidin-4-yl)phenylamino)-5-(3-(1,3,3-trimethylureido)piperidin-1-yl)pyrazine-2-carboxamide] |  | 10 to 100 nM |  | 10 to 100 nM |
| CN(C)C(=O)N(C)[C@@H]1CCCN(c2cnc(C(N)=O)c(Nc3ccc(N4CCS(=O)(=O)CC4)cc3)n2)C1 [Example 229, (R)-3-(4-(1,1-dioxothiomorpholino)phenylamino)-5-(3-(1,3,3-trimethylureido)piperidin-1-yl)pyrazine-2-carboxamide] |  | 10 to 100 nM |  | 10 to 100 nM |
| C[C@@H]1[C@H](N)CCCN1c1cnc(C(N)=O)c(Nc2ccc(C3CCN(C4CCCC4)CC3)cc2)n1 [Example 230, 5-((2R,3R)-3-amino-2-methylpiperidin-1-yl)-3-(4-(1-cyclopentylpiperidin-4-yl)phenylamino)pyrazine-2-carboxamide] | 10 to 100 nM | 10 to 100 nM |  |  |

The next lines start with results.

| IC50 (Btk (IC50)) | IC50 [1] | IC50 (read-out: Btk (IC50)) | SMILES | IC50 |
| --- | --- | --- | --- | --- |
| 10 to 100 nM | 10 to 100 nM |  | CCN1CCC(c2ccc(Nc3nc(N4CCC[C@@H](NC(=O)N(C)C)C4)cnc3C(N)=O)cc2)CC1 [Example 207, (R)-5-(3-(3,3-dimethylureido)piperidin-1-yl)-3-(4-(1-ethylpiperidin-4-yl)phenylamino)pyrazine-2-carboxamide] |  |
|  | < 10 nM | < 10 nM | CC(C)N1CCC(c2ccc(Nc3nc(N4CCC[C@@H](NC(=O)N(C)C)C4)cnc3C(N)=O)cc2)CC1 [Example 208, (R)-5-(3-(3,3-dimethylureido)piperidin-1-yl)-3-(4-(1-isopropylpiperidin-4-yl)phenylamino)pyrazine-2-carboxamide] |  |
|  | 10 to 100 nM |  | CC(C)[N+]1([O-])CCC(c2ccc(Nc3nc(N4CCC[C@@H](NC(=O)N(C)C)C4)cnc3C(N)=O)cc2)CC1 (stereo partly drawn) [Example 209, (R)-4-(4-(3-carbamoyl-6-(3-(3,3-dimethylureido)piperidin-1-yl)pyrazin-2-ylamino)phenyl)-1-isopropylpiperidine 1-oxide] |  |
|  | < 10 nM | < 10 nM | CN(C)C(=O)N[C@@H]1CCCN(c2cnc(C(N)=O)c(Nc3ccc(C4CCN(C5CCCCC5)CC4)cc3)n2)C1 [Example 210, (R)-3-(4-(1-cyclohexylpiperidin-4-yl)phenylamino)-5-(3-(3,3-dimethylureido)piperidin-1-yl)pyrazine-2-carboxamide] |  |
|  | < 10 nM | < 10 nM | CN(C)C(=O)N[C@@H]1CCCN(c2cnc(C(N)=O)c(Nc3ccc(N4CCN(C5CC5)CC4)cc3)n2)C1 [Example 214, (R)-3-(4-(4-cyclopropylpiperazin-1-yl)phenylamino)-5-(3-(3,3-dimethylureido)piperidin-1-yl)pyrazine-2-carboxamide] |  |
|  | < 10 nM | < 10 nM | CN(C)C(=O)N[C@@H]1CCCN(c2cnc(C(N)=O)c(Nc3ccc(N4CCN(C5CCCC5)CC4)cc3)n2)C1 [Example 215, (R)-3-(4-(4-cyclopentylpiperazin-1-yl)phenylamino)-5-(3-(3,3-dimethylureido)piperidin-1-yl)pyrazine-2-carboxamide] |  |
|  | < 10 nM |  | CN(C)C(=O)N[C@@H]1CCCN(c2cnc(C(N)=O)c(Nc3cnn(C4CCN(C5CCCC5)CC4)c3)n2)C1 [Example 218, (R)-3-(1-(1-cyclopentylpiperidin-4-yl)-1H-pyrazol-4-ylamino)-5-(3-(3,3-dimethylureido)piperidin-1-yl)pyrazine-2-carboxamide] |  |
|  | < 10 nM | < 10 nM | CN(C)C(=O)N[C@@H]1CCCN(c2cnc(C(N)=O)c(Nc3ccc(C4(C)CCNCC4)cc3)n2)C1 [Example 221, (R)-5-(3-(3,3-dimethylureido)piperidin-1-yl)-3-(4-(4-methylpiperidin-4-yl)phenylamino)pyrazine-2-carboxamide] |  |
|  | < 10 nM | < 10 nM | CN(C)C(=O)N[C@@H]1CCCN(c2cnc(C(N)=O)c(Nc3ccc(C4(C)CCN(C(=O)N(C)C)CC4)cc3)n2)C1 [Example 223, (R)-3-(4-(1-(dimethylcarbamoyl)-4-methylpiperidin-4-yl)phenylamino)-5-(3-(3,3-dimethylureido)piperidin-1-yl)pyrazine-2-carboxamide] |  |
|  | < 10 nM |  | CCC(=O)N1CCC(C)(c2ccc(Nc3nc(N4CCC[C@@H](NC(=O)N(C)C)C4)cnc3C(N)=O)cc2)CC1 [Example 224] |  |
| 10 to 100 nM | < 10 nM |  | CN(C)C(=O)N(C)[C@@H]1CCCN(c2cnc(C(N)=O)c(Nc3ccc(C4CCN(C5CCCC5)CC4)cc3)n2)C1 [Example 225, (R)-3-(4-(1-cyclopentylpiperidin-4-yl)phenylamino)-5-(3-(1,3,3-trimethylureido)piperidin-1-yl)pyrazine-2-carboxamide] |  |
